# Results published in patent EP0998912B1, “Use of peracids for hand's disinfection or decontamination” (Bode Chemie GmbH & Co., priority 1998, dated 2000).
# Columns and labels:
# [1] = Skin tolerance observed during the hand disinfection and decontamination tests; format: in vivo
# Excerpt: (§1) Mit dieser Lösung wurde der Test zur chirurgischen Händedesinfektion entsprechend den Richtlinien der DGHM (Stand: 01.01.1981, Versuch II-2) durchgeführt. Bei diesem Versuch werden die Hände durch Einreiben 3 Minuten feucht gehalten und gegen ein Standardalkohol (n-Propanol 60 Vol.-%) nach 5 Minuten getestet. Der Test gilt als bestanden, wenn die residente Hautflora durch das Testpräparat gleich oder stärker reduziert wird als durch den Standard.
# Mit einer solchen Lösung, die 4 Gew.-% des Wirkstoffes MMPP enthält, wurde ein Test zur Händedekontamination nach DGHM (Stand: 08.07.1986, Versuch 11) durchgeführt. Bei diesem Verfahren wird die Fähigkeit getestet, die transiente Hautflora zu reduzieren. Der Test gilt als bestanden, wenn das Präparat innerhalb von 30 Sekunden eine E. coli-Kontamination um 3,5 logarithmische Stufen entsprechend 99,9684 % reduziert.
# Mit diesen Pasten wurden entsprechend Beispiel 2 die Versuche zur Händedekontamination durchgeführt. Die Hände werden 30 Sekunden mit 1,5 ml der Pasten eingerieben und dann mit Wasser entsprechend der Vorschrift aufgeschäumt.
# Mit der Zubereitung aus Beispiel 2 wurde der Test zur hygienischen Händedesinfektion gemäß den Richtlinien der DGHM (Stand: 01.01.1981, Versuch II-1) durchgeführt. […]
# [2] = test system: transiente Flora (E. coli); assay: Hygienic hand disinfection test, DGHM guidelines (01.01.1981, Versuch II-1); format: in vivo; settings: 1 bis 10 gewichts-%-ige purely aqueous solutions, 30 bis 60 Sekunden; compared with requirements for 60 Volumen-% Ethanol or Isopropanol
# Protocol: Mit der Zubereitung aus Beispiel 2 wurde der Test zur hygienischen Händedesinfektion gemäß den Richtlinien der DGHM (Stand: 01.01.1981, Versuch II-1) durchgeführt. Bei diesem Versuch muß die transiente Flora (E. coli) in 30 Sekunden gleich oder stärker reduziert werden als mit einem Standardalkohol (Isopropanol 60 Vol.-%) in 1 Minute.
# Bakterien = assay: Comparative trials on germ reduction by aqueous MMPP solutions; settings: 0,1 bis 10 gewichts-%-ige aqueous solutions, about 30 Sekunden Einwirkzeit
# residente Hautflora = assay: Surgical hand disinfection test, DGHM guidelines (01.01.1981, Versuch II-2); format: in vivo; settings: 5 gew.-%ige solution in demineralised water, hands kept moist 3 Minuten; standard n-Propanol 60 Vol.-% 5 Minuten
# Excerpt: as §1
structure (smiles),measurement,setting,value
"O=C(O)c1ccccc1C(=O)OO [MMPP, Magnesium-Monoperoxidophthalat]",Hautverträglichkeit,"[1]; 0,1 bis 10 gewichts-%-ige aqueous solutions, Vergleichsversuche",hervorragend hautverträglich
same,Hautunverträglichkeiten,"[1]; Beispiel 1, 5 gew.-%ige MMPP-Lösung, surgical hand disinfection",keine Hautunverträglichkeiten
same,Keimreduktion bei der hygienischen Händedesinfektion,[2],vergleichbare Keimreduktion
same,Keimreduktion,Bakterien,> 4 log-Stufen
same,Keimreduktion,Bakterien; equivalent of the log steps,"> 99,99%"
same,Reduktion der residenten Hautflora gleich oder stärker als durch den Standard,residente Hautflora,erfüllt diese Anforderungen
